Values after ≈ are worked out from the molar mass of the structure shown. Like-named read-outs stand apart in the source and are kept apart here.
Test system: clinical MDR Staphylococcus epidermidis isolates
Experiment: MIC, broth microdilution, 81 clinical MDR strains
Assay type: cell-based
Procedure, shortened: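 MICs were determined by twofold broth microdilution in cation-adjusted Mueller-Hinton II broth per EUCAST, over 50–0.1 µg/mL, in duplicate. Compounds were tested as free bases dissolved in DMSO; MIC50 and MIC90 were derived across the 81 clinical MDR S. epidermidis strains.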

With O=C(Nc1cccc(Cl)c1)NC1CCN(CCC(Oc2ccc(C(F)(F)F)cc2)c2cccs2)CC1 (stereo not shown) [Compound 25] the MIC (Staphylococcus epidermidis, clinical strain 41 (Table S5), read-out: MIC) was 1.6 µg/mL (≈ 2.97 µM), the MIC (Staphylococcus epidermidis, clinical strain 42 (Table S2), read-out: MIC) was 0.8 µg/mL (≈ 1.49 µM) and the MIC (Staphylococcus epidermidis, clinical strain 42 (Table S5), read-out: MIC) was 0.8 µg/mL (≈ 1.49 µM). For the same compound, the MIC (Staphylococcus epidermidis, clinical strain 43 (Table S2), read-out: MIC) was 1.6 µg/mL (≈ 2.97 µM), the MIC (Staphylococcus epidermidis, clinical strain 43 (Table S5), read-out: MIC) was 1.6 µg/mL (≈ 2.97 µM) and the MIC (Staphylococcus epidermidis, clinical strain 44 (Table S2), read-out: MIC) was 1.6 µg/mL (≈ 2.97 µM). It also gave an MIC (Staphylococcus epidermidis, clinical strain 44 (Table S5), read-out: MIC) of 1.6 µg/mL (≈ 2.97 µM), an MIC (Staphylococcus epidermidis, clinical strain 45 (Table S2), read-out: MIC) of 1.6 µg/mL (≈ 2.97 µM) and an MIC (Staphylococcus epidermidis, clinical strain 45 (Table S5), read-out: MIC) of 1.6 µg/mL (≈ 2.97 µM). It also gave an MIC (Staphylococcus epidermidis, clinical strain 46 (Table S2), read-out: MIC) of 1.6 µg/mL (≈ 2.97 µM), an MIC (Staphylococcus epidermidis, clinical strain 46 (Table S5), read-out: MIC) of 0.8 µg/mL (≈ 1.49 µM) and an MIC (Staphylococcus epidermidis, clinical strain 47 (Table S2), read-out: MIC) of 1.6 µg/mL (≈ 2.97 µM). It also gave an MIC (Staphylococcus epidermidis, clinical strain 47 (Table S5), read-out: MIC) of 1.6 µg/mL (≈ 2.97 µM), an MIC (Staphylococcus epidermidis, clinical strain 48 (Table S2), read-out: MIC) of 1.6 µg/mL (≈ 2.97 µM) and an MIC (Staphylococcus epidermidis, clinical strain 48 (Table S5), read-out: MIC) of 1.6 µg/mL (≈ 2.97 µM). The MIC (Staphylococcus epidermidis, clinical strain 49 (Table S2), read-out: MIC) was 0.1 µg/mL (≈ 0.186 µM), the MIC (Staphylococcus epidermidis, clinical strain 49 (Table S5), read-out: MIC) was 0.1 µg/mL (≈ 0.186 µM) and the MIC (Staphylococcus epidermidis, clinical strain 50 (Table S2), read-out: MIC) was 3.12 µg/mL (≈ 5.81 µM). It also gave an MIC (Staphylococcus epidermidis, clinical strain 50 (Table S5), read-out: MIC) of 3.12 µg/mL (≈ 5.81 µM), an MIC (Staphylococcus epidermidis, clinical strain 51 (Table S2), read-out: MIC) of 3.12 µg/mL (≈ 5.81 µM) and an MIC (Staphylococcus epidermidis, clinical strain 51 (Table S5), read-out: MIC) of 3.12 µg/mL (≈ 5.81 µM). The MIC (Staphylococcus epidermidis, clinical strain 52 (Table S2), read-out: MIC) was 3.12 µg/mL (≈ 5.81 µM), the MIC (Staphylococcus epidermidis, clinical strain 52 (Table S5), read-out: MIC) was 3.12 µg/mL (≈ 5.81 µM) and the MIC (Staphylococcus epidermidis, clinical strain 53 (Table S2), read-out: MIC) was 3.12 µg/mL (≈ 5.81 µM). It also gave an MIC (Staphylococcus epidermidis, clinical strain 53 (Table S5), read-out: MIC) of 3.12 µg/mL (≈ 5.81 µM), an MIC (Staphylococcus epidermidis, clinical strain 54 (Table S2), read-out: MIC) of 0.8 µg/mL (≈ 1.49 µM) and an MIC (Staphylococcus epidermidis, clinical strain 54 (Table S5), read-out: MIC) of 0.8 µg/mL (≈ 1.49 µM). For the same compound, the MIC (Staphylococcus epidermidis, clinical strain 55 (Table S2), read-out: MIC) was 3.12 µg/mL (≈ 5.81 µM), the MIC (Staphylococcus epidermidis, clinical strain 55 (Table S5), read-out: MIC) was 3.12 µg/mL (≈ 5.81 µM) and the MIC (Staphylococcus epidermidis, clinical strain 56 (Table S2), read-out: MIC) was 1.6 µg/mL (≈ 2.97 µM). It also gave an MIC (Staphylococcus epidermidis, clinical strain 56 (Table S5), read-out: MIC) of 1.6 µg/mL (≈ 2.97 µM), an MIC (Staphylococcus epidermidis, clinical strain 57 (Table S2), read-out: MIC) of 3.12 µg/mL (≈ 5.81 µM) and an MIC (Staphylococcus epidermidis, clinical strain 57 (Table S5), read-out: MIC) of 3.12 µg/mL (≈ 5.81 µM). It also gave an MIC (Staphylococcus epidermidis, clinical strain 58 (Table S2), read-out: MIC) of 0.8 µg/mL (≈ 1.49 µM), an MIC (Staphylococcus epidermidis, clinical strain 58 (Table S5), read-out: MIC) of 0.8 µg/mL (≈ 1.49 µM) and an MIC (Staphylococcus epidermidis, clinical strain 59 (Table S2), read-out: MIC) of 3.12 µg/mL (≈ 5.81 µM). It also gave an MIC (Staphylococcus epidermidis, clinical strain 59 (Table S5), read-out: MIC) of 3.12 µg/mL (≈ 5.81 µM), an MIC (Staphylococcus epidermidis, clinical strain 60 (Table S2), read-out: MIC) of 3.12 µg/mL (≈ 5.81 µM) and an MIC (Staphylococcus epidermidis, clinical strain 60 (Table S5), read-out: MIC) of 3.12 µg/mL (≈ 5.81 µM). For the same compound, the MIC (Staphylococcus epidermidis, clinical strain 61 (Table S2), read-out: MIC) was 1.6 µg/mL (≈ 2.97 µM), the MIC (Staphylococcus epidermidis, clinical strain 61 (Table S5), read-out: MIC) was 1.6 µg/mL (≈ 2.97 µM) and the MIC (Staphylococcus epidermidis, clinical strain 62 (Table S2), read-out: MIC) was 1.6 µg/mL (≈ 2.97 µM). It also gave an MIC (Staphylococcus epidermidis, clinical strain 62 (Table S5), read-out: MIC) of 1.6 µg/mL (≈ 2.97 µM), an MIC (Staphylococcus epidermidis, clinical strain 63 (Table S2), read-out: MIC) of 1.6 µg/mL (≈ 2.97 µM) and an MIC (Staphylococcus epidermidis, clinical strain 63 (Table S5), read-out: MIC) of 1.6 µg/mL (≈ 2.97 µM). It also gave an MIC (Staphylococcus epidermidis, clinical strain 64 (Table S2), read-out: MIC) of 3.12 µg/mL (≈ 5.81 µM), an MIC (Staphylococcus epidermidis, clinical strain 64 (Table S5), read-out: MIC) of 3.12 µg/mL (≈ 5.81 µM) and an MIC (Staphylococcus epidermidis, clinical strain 65 (Table S2), read-out: MIC) of 3.12 µg/mL (≈ 5.81 µM). For the same compound, the MIC (Staphylococcus epidermidis, clinical strain 65 (Table S5), read-out: MIC) was 3.12 µg/mL (≈ 5.81 µM), the MIC (Staphylococcus epidermidis, clinical strain 66 (Table S2), read-out: MIC) was 1.6 µg/mL (≈ 2.97 µM) and the MIC (Staphylococcus epidermidis, clinical strain 66 (Table S5), read-out: MIC) was 1.6 µg/mL (≈ 2.97 µM). It also gave an MIC (Staphylococcus epidermidis, clinical strain 67 (Table S2), read-out: MIC) of 3.12 µg/mL (≈ 5.81 µM), an MIC (Staphylococcus epidermidis, clinical strain 67 (Table S5), read-out: MIC) of 3.12 µg/mL (≈ 5.81 µM) and an MIC (Staphylococcus epidermidis, clinical strain 68 (Table S2), read-out: MIC) of 3.12 µg/mL (≈ 5.81 µM). For the same compound, the MIC (Staphylococcus epidermidis, clinical strain 68 (Table S5), read-out: MIC) was 3.12 µg/mL (≈ 5.81 µM), the MIC (Staphylococcus epidermidis, clinical strain 69 (Table S2), read-out: MIC) was 1.6 µg/mL (≈ 2.97 µM) and the MIC (Staphylococcus epidermidis, clinical strain 69 (Table S5), read-out: MIC) was 1.6 µg/mL (≈ 2.97 µM). For the same compound, the MIC (Staphylococcus epidermidis, clinical strain 70 (Table S2), read-out: MIC) was 3.12 µg/mL (≈ 5.81 µM), the MIC (Staphylococcus epidermidis, clinical strain 70 (Table S5), read-out: MIC) was 3.12 µg/mL (≈ 5.81 µM) and the MIC (Staphylococcus epidermidis, clinical strain 71 (Table S2), read-out: MIC) was 1.6 µg/mL (≈ 2.97 µM). The MIC (Staphylococcus epidermidis, clinical strain 71 (Table S5), read-out: MIC) was 1.6 µg/mL (≈ 2.97 µM), the MIC (Staphylococcus epidermidis, clinical strain 72 (Table S2), read-out: MIC) was 3.12 µg/mL (≈ 5.81 µM) and the MIC (Staphylococcus epidermidis, clinical strain 72 (Table S5), read-out: MIC) was 3.12 µg/mL (≈ 5.81 µM). It also gave an MIC (Staphylococcus epidermidis, clinical strain 73 (Table S2), read-out: MIC) of 0.4 µg/mL (≈ 0.743 µM), an MIC (Staphylococcus epidermidis, clinical strain 73 (Table S5), read-out: MIC) of 0.4 µg/mL (≈ 0.743 µM) and an MIC (Staphylococcus epidermidis, clinical strain 74 (Table S2), read-out: MIC) of 3.12 µg/mL (≈ 5.81 µM). It also gave an MIC (Staphylococcus epidermidis, clinical strain 74 (Table S5), read-out: MIC) of 3.12 µg/mL (≈ 5.81 µM), an MIC (Staphylococcus epidermidis, clinical strain 75 (Table S2), read-out: MIC) of 3.12 µg/mL (≈ 5.81 µM) and an MIC (Staphylococcus epidermidis, clinical strain 75 (Table S5), read-out: MIC) of 3.12 µg/mL (≈ 5.81 µM). The MIC (Staphylococcus epidermidis, clinical strain 76 (Table S2), read-out: MIC) was 1.6 µg/mL (≈ 2.97 µM), the MIC (Staphylococcus epidermidis, clinical strain 76 (Table S5), read-out: MIC) was 1.6 µg/mL (≈ 2.97 µM) and the MIC (Staphylococcus epidermidis, clinical strain 77 (Table S2), read-out: MIC) was 3.12 µg/mL (≈ 5.81 µM). It also gave an MIC (Staphylococcus epidermidis, clinical strain 77 (Table S5), read-out: MIC) of 3.12 µg/mL (≈ 5.81 µM), an MIC (Staphylococcus epidermidis, clinical strain 78 (Table S2), read-out: MIC) of 1.6 µg/mL (≈ 2.97 µM) and an MIC (Staphylococcus epidermidis, clinical strain 78 (Table S5), read-out: MIC) of 1.6 µg/mL (≈ 2.97 µM). For the same compound, the MIC (Staphylococcus epidermidis, clinical strain 79 (Table S2), read-out: MIC) was 0.4 µg/mL (≈ 0.743 µM), the MIC (Staphylococcus epidermidis, clinical strain 79 (Table S5), read-out: MIC) was 0.4 µg/mL (≈ 0.743 µM) and the MIC (Staphylococcus epidermidis, clinical strain 80 (Table S2), read-out: MIC) was 3.12 µg/mL (≈ 5.81 µM). It also gave an MIC (Staphylococcus epidermidis, clinical strain 80 (Table S5), read-out: MIC) of 3.12 µg/mL (≈ 5.81 µM), an MIC (Staphylococcus epidermidis, clinical strain 81 (Table S2), read-out: MIC) of 0.2 µg/mL (≈ 0.372 µM) and an MIC (Staphylococcus epidermidis, clinical strain 81 (Table S5), read-out: MIC) of 0.2 µg/mL (≈ 0.372 µM). For the same compound, the MIC (Staphylococcus epidermidis, mean of MIC values against clinical MDR-SE isolates, read-out: mean MIC) was 1.76 µg/mL (≈ 3.27 µM), the MIC50 (Staphylococcus epidermidis, 81 clinical strains, concentration inhibiting growth of 50% clinical isolates) was 1.6 µg/mL (≈ 2.97 µM) and the MIC90 (Staphylococcus epidermidis, 81 clinical strains, concentration inhibiting growth of 90% of clinical isolates) was 3.12 µg/mL (≈ 5.81 µM). For the same compound, the “category according to EUCAST clinical breakpoints for linezolid” value (all reference and clinical MDR S. epidermidis strains) was “within the susceptible category”.

From PMC10945555, “Improving Activity of New Arylurea Agents against Multidrug-Resistant and Biofilm-Producing Staphylococcus epidermidis” (ACS Medicinal Chemistry Letters, 2024)
